From EP2388012A1 (Roehampton University, priority 2010, dated 2011)
Where no end group is shown, it is not given here. The star is where a group is joined. Biotin = O=C1N[C@H]2[C@H](CS[C@H]2CCCCC(=O)*)N1

Legend:
Aß 1-42 = assay type: binding, human; conditions: 4°C 16 hours
IAPP 1-37 = assay type: binding, human; conditions: 4°C 16 hours
[1] = tested on: human neuroblastoma SH-SY5Y cell line; assay type: cell-based
[2] = molecular target: GPR-54 G-protein coupled receptor (mouse) (UniProt Q91V45); assay: cell-based or functional assay
[3] = tested on: mouse LHRH secreting cell line (GT1); assay type: cell-based
[4] = tested on: biotinylated Aß 1-42 to the Kissorphin-6 peptide; assay type: binding, human
[5] = tested on: biotinylated IAPP 1-37 to the Kissorphin-6 peptide; assay type: binding, human
[6] = tested on: biotinylated PrP 106-126 to the Kissorphin-6 peptide
Aß 1-42 fibrils = assay type: binding, human
Aß 25-35 fibrils = assay type: binding, human
IAPP 1-37 fibrils = assay type: binding, human
IAPP 20-29 fibrils = assay type: binding, human
Amyloid-Bri fibrils = assay type: binding, human
Amyloid-Dan fibrils = assay type: binding, human
[7] = molecular target: T1, GPR-54 G-protein coupled receptor (mouse), Q91V45; assay: cell-based or functional assay
T1 chain: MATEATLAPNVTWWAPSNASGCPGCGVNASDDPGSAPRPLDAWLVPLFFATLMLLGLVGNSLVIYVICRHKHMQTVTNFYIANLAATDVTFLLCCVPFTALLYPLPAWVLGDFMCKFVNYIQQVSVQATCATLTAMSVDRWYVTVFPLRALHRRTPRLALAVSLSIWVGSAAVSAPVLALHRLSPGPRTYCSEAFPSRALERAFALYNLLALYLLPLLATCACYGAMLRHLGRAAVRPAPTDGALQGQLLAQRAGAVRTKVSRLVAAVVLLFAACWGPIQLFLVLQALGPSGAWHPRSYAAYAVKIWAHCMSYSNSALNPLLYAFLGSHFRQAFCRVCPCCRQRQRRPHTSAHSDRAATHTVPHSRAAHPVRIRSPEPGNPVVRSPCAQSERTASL

Molecule: Kisspeptin-54: the 54 amino acid form of Kisspeptin, peptide derived from the Kiss1 gene, ligand for GPR-54 (SEQ ID No. 1)
- binding of biotinylated Aß 1-42 to peptide coated plates (Aß 1-42): significant binding
- binding of biotinylated IAPP 1-37 to peptide coated plates (IAPP 1-37): significant binding
- effect on toxicity of Aß 1-42 [1]: significantly inhibited
- effect on toxicity of Aß 25-35 [1]: significantly inhibited
- effect on toxicity of IAPP 1-37 [1]: significantly inhibited
- effect on toxicity of IAPP 20-29 [1]: significantly inhibited
- effect on toxicity of PrP 106-126 [1]: significantly inhibited
- effect on toxicity of PrP 118-135 [1]: significantly inhibited
- effect on toxicity of the Amyloid-Bri peptide [1]: unaffected
- effect on toxicity of the Amyloid-Dan peptide [1]: unaffected
- binding of biotinylated PrP 106-126 to peptide coated plates (PrP 106-126): significant binding

Molecule: Kisspeptin-10 (peptide)
- LHRH release from mouse GT1 cells [2]: 4 fold

Molecule: Kissorphin-6 (3-6): shorter sequence, SEQ ID No. 11, residues 3-6 of Kissorphin-6 (WNSF)
- effect on Kisspeptin-10 stimulated release of immunoreactive LHRH [3]: no significant effect
- effect on Kisspeptin-13 stimulated release of immunoreactive LHRH [3]: no significant effect
- effect on toxicity of Aß 1-42 [1]: significantly inhibited
- effect on toxicity of Aß 25-35 [1]: significantly inhibited
- effect on toxicity of IAPP 1-37 [1]: no effect
- effect on toxicity of IAPP 20-29 [1]: no effect
- effect on toxicity of PrP 106-126 [1]: no effect
- effect on toxicity of PrP 118-135 [1]: no effect
- effect on toxicity of the Amyloid-Bri peptide [1]: unaffected
- effect on toxicity of the Amyloid-Dan peptide [1]: unaffected

Molecule: Aß 1-28: Aß fragment, unlabelled competitor
- effect on binding of biotinylated Aß 1-42 to the Kissorphin-6 peptide [4]: no effect
- effect on binding of biotinylated IAPP 1-37 to the Kissorphin-6 peptide [5]: no effect
- effect on binding of biotinylated PrP 106-126 to the Kissorphin-6 peptide [6]: no effect

Molecule: Aß 29-40: Aß fragment, unlabelled competitor (GAIIGLMVGGVV; Amyloid-beta protein 40; UniProt P05067 700-711, looked up, fragment)
- effect on binding of biotinylated Aß 1-42 to the Kissorphin-6 peptide [4]: strongly inhibited
- effect on binding of biotinylated IAPP 1-37 to the Kissorphin-6 peptide [5]: strongly inhibited
- effect on binding of biotinylated PrP 106-126 to the Kissorphin-6 peptide [6]: strongly inhibited

Molecule: Biotinylated Kisspeptin-54: N-terminally Biotinylated Kisspeptin-54, purchased from Bachem or Alpha Diagnostics (Biotin-GTSLSPPPESSGSPQQPGLSAPHSRQIPAPQGAVLVQREKDLPNYNWNSFGLRF; ends and bridges not checked; UniProt Q15726 68-121, looked up)
- binding to plates coated with Aß 1-42 fibrils (Aß 1-42 fibrils): bound
- binding to plates coated with Aß 25-35 fibrils (Aß 25-35 fibrils): bound
- binding to plates coated with IAPP 1-37 fibrils (IAPP 1-37 fibrils): bound
- binding to plates coated with IAPP 20-29 fibrils (IAPP 20-29 fibrils): bound
- binding to Amyloid-Bri fibrils (Amyloid-Bri fibrils): No binding
- binding to Amyloid-Dan fibrils (Amyloid-Dan fibrils): No binding
- binding to plates coated with PrP 106-126 fibrils (PrP 106-126 fibrils): bound
- binding to plates coated with PrP 118-135 fibrils (PrP 118-135 fibrils): bound

Molecule: Aß 25-35: Aß fragment, functional neurotoxic domain (GSNKGAIIGLM)
- effect on binding of biotinylated Aß 1-42 to the Kissorphin-6 peptide [4]: strongly inhibited
- effect on binding of biotinylated IAPP 1-37 to the Kissorphin-6 peptide [5]: strongly inhibited
- effect on binding of biotinylated PrP 106-126 to the Kissorphin-6 peptide [6]: strongly inhibited

Molecule: Aß 31-35: Aß fragment, the shortest cytotoxic form of Aß (IIGLM; Amyloid-beta protein 40; UniProt P05067 702-706, looked up, fragment)
- effect on binding of biotinylated Aß 1-42 to the Kissorphin-6 peptide [4]: no effect
- effect on binding of biotinylated IAPP 1-37 to the Kissorphin-6 peptide [5]: no effect
- effect on binding of biotinylated PrP 106-126 to the Kissorphin-6 peptide [6]: no effect

Molecule: Kisspeptin-54 (27-54): fragment 27-54 of Kisspeptin-54 (IPAPQGAVLVQREKDLPNYNWNSFGLRF)
- binding of biotinylated Aß 1-42 to peptide coated plates (Aß 1-42): significant binding
- binding of biotinylated IAPP 1-37 to peptide coated plates (IAPP 1-37): significant binding
- effect on toxicity of Aß 1-42 [1]: significantly inhibited
- effect on toxicity of Aß 25-35 [1]: significantly inhibited
- effect on toxicity of IAPP 1-37 [1]: significantly inhibited
- effect on toxicity of IAPP 20-29 [1]: significantly inhibited
- effect on toxicity of PrP 106-126 [1]: significantly inhibited
- effect on toxicity of PrP 118-135 [1]: significantly inhibited
- effect on toxicity of the Amyloid-Bri peptide [1]: unaffected
- effect on toxicity of the Amyloid-Dan peptide [1]: unaffected
- binding of biotinylated PrP 106-126 to peptide coated plates (PrP 106-126): significant binding

Molecule: Biotinylated Kisspeptin-10: N-terminally Biotinylated Kisspeptin-10, purchased from Bachem or Alpha Diagnostics
- binding to plates coated with Aß 1-42 fibrils (Aß 1-42 fibrils): bound
- binding to plates coated with Aß 25-35 fibrils (Aß 25-35 fibrils): bound
- binding to plates coated with IAPP 1-37 fibrils (IAPP 1-37 fibrils): bound
- binding to plates coated with IAPP 20-29 fibrils (IAPP 20-29 fibrils): bound
- binding to Amyloid-Bri fibrils (Amyloid-Bri fibrils): No binding
- binding to Amyloid-Dan fibrils (Amyloid-Dan fibrils): No binding
- binding to plates coated with PrP 106-126 fibrils (PrP 106-126 fibrils): bound
- binding to plates coated with PrP 118-135 fibrils (PrP 118-135 fibrils): bound

Molecule: LPNYNWNSFGLRF (modifications not checked) [Kisspeptin-13, Q15726 109-121]
- LHRH release from mouse GT1 cells [7]: 4 fold

Molecule: KCNTATCATQRLANFLVHSSNNFGAILSSTNVGSNTY (modifications not checked) [IAPP 1-37]
- Kd (Kissorphin-6 (human)): 11.6 nM

Molecule: KTNMKHMAGAAAAGAVVGGLG (modifications not checked) [PrP 106-126]
- Kd (Kissorphin-6 (human)): 34.2 nM
